Source: patent US20250230165A1, “HETEROCYCLIC COMPOUNDS FOR USE IN THE TREATMENT OF CANCER” (ARTIOS PHARMA LIMITED, priority 2021, published 2025)

Target: T1, Human Polθ polymerase domain (aa1820-2590) (Homo sapiens, UniProt O75417)
T1 construct: Human Polθ polymerase domain (aa1820-2590) was expressed in E. coli; made in house; host or cells: E. coli
T1 sequence (O75417 1820-2590): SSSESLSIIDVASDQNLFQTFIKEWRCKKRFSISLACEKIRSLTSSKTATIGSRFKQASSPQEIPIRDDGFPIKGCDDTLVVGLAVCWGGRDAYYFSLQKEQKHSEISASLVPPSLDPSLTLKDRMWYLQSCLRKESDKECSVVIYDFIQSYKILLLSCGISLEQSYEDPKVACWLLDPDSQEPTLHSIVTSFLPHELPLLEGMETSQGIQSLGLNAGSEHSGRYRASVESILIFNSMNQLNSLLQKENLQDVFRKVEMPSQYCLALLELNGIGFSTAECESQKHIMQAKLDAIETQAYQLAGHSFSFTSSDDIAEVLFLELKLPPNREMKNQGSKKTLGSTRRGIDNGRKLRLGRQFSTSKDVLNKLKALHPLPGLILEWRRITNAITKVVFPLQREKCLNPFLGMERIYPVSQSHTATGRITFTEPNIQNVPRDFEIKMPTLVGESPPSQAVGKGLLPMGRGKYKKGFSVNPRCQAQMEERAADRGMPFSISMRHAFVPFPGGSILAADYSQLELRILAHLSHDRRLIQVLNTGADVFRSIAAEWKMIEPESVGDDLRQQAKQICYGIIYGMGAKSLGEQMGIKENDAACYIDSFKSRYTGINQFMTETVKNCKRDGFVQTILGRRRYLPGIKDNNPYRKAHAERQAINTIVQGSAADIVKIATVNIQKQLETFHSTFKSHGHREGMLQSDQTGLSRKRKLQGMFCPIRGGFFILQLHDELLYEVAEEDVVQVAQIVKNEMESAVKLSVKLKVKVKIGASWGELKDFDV
Test: Polθ Polymerase Domain Kinact/KI Assay (PicoGreen)
Format: biochemical
Conditions: 0.8 nM Polθ, 100 nM DNA substrate, kobs vs [I] fit for 2-step covalent inhibitor
How it was run: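 PicoGreen fluorescence read-out of primer extension; progress curves per inhibitor concentration fitted for kobs, then kobs vs [I] fitted to a two-step covalent model to give Kinact and KI. Conditions: 0.8 nM enzyme, 100 nM DNA substrate, […].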

| SMILES | Kinact/Kl |
| --- | --- |
| Cc1cc(C(F)(F)F)cc(N2C(=O)C[C@@H]3CN(CC(F)CCCNC(=O)/C=C/CN(C)C)c4c(Cl)cccc4N(C)C(=O)[C@H]32)n1 (stereo partly drawn) [Example 253, (E)-N-(5-((3aR,11aS)-6-chloro-10-methyl-1-(6-methyl-4-(trifluoromethyl)pyridin-2-yl)-2,11-dioxo-1,2,3,3a,4,10,11,11a-octahydro-5H-benzo[b]pyrrolo[2,3-f][1,4]diazocin-5-yl)-4-fluoropentyl)-4-(dimethylamino)but-2-enamide] | 1.42e+06 M⁻¹ s⁻¹ |
| Cc1cc(C(F)(F)F)cc(N2C(=O)C[C@@H]3CN(CCCCC4CN(C(=O)/C(Cl)=C/CN(C)C)C4)c4c(C)cccc4N(C)C(=O)[C@H]32)n1 [Example 254, (3aR,11aS)-5-(4-(1-((Z)-2-chloro-4-(dimethylamino)but-2-enoyl)azetidin-3-yl)butyl)-6,10-dimethyl-1-(6-methyl-4-(trifluoromethyl)pyridin-2-yl)-1,3a,4,5,10,11a-hexahydro-2H-benzo[b]pyrrolo[2,3-f][1,4]diazocine-2,11(3H)-dione] | 2.13e+06 M⁻¹ s⁻¹ |
| Cc1cc(C(F)(F)F)cc(N2C(=O)C[C@@H]3CN(Cc4ccc5c(c4)CN(C(=O)/C(Cl)=C/CN(C)C)C5)c4c(C)cccc4N(C)C(=O)[C@H]32)n1 [Example 255, (3aR,11aS)-5-((2-((Z)-2-chloro-4-(dimethylamino)but-2-enoyl)isoindolin-5-yl)methyl)-6,10-dimethyl-1-(6-methyl-4-(trifluoromethyl)pyridin-2-yl)-1,3a,4,5,10,11a-hexahydro-2H-benzo[b]pyrrolo[2,3-f][1,4]diazocine-2,11(3H)-dione] | 980000 M⁻¹ s⁻¹ |
| C=CC(=O)N1CCN(CCN2C[C@H]3CC(=O)N(c4cc(C(F)(F)F)cc(C)n4)[C@@H]3C(=O)N(C)c3cccc(C)c32)CC1 [Example 256, (3aR,11aS)-5-(2-(4-acryloylpiperazin-1-yl)ethyl)-6,10-dimethyl-1-(6-methyl-4-(trifluoromethyl)pyridin-2-yl)-1,3a,4,5,10,11a-hexahydro-2H-benzo[b]pyrrolo[2,3-f][1,4]diazocine-2,11(3H)-dione] | 1.11e+06 M⁻¹ s⁻¹ |
| C=CC(=O)N1Cc2ncn(CCN3C[C@H]4CC(=O)N(c5cc(C(F)(F)F)cc(C)n5)[C@@H]4C(=O)N(C)c4cccc(Cl)c43)c2C1 [Example 259, (3aR,11aS)-5-(2-(5-acryloyl-5,6-dihydropyrrolo[3,4-d]imidazol-1(4H)-yl)ethyl)-6-chloro-10-methyl-1-(6-methyl-4-(trifluoromethyl)pyridin-2-yl)-1,3a,4,5,10,11a-hexahydro-2H-benzo[b]pyrrolo[2,3-f][1,4]diazocine-2,11(3H)-dione] | 150000 M⁻¹ s⁻¹ |
| C=CC(=O)N1CCN(CCN2C[C@H]3CC(=O)N(c4cc(C(F)(F)F)cc(C)n4)[C@@H]3C(=O)N(C)c3cccc(C)c32)[C@@H](C)C1 [Example 260, (3aR,11aS)-5-(2-((S)-4-acryloyl-2-methylpiperazin-1-yl)ethyl)-6,10-dimethyl-1-(6-methyl-4-(trifluoromethyl)pyridin-2-yl)-1,3a,4,5,10,11a-hexahydro-2H-benzo[b]pyrrolo[2,3-f][1,4]diazocine-2,11(3H)-dione] | 1.54e+06 M⁻¹ s⁻¹ |
| C=CC(=O)N1CC2CC(C1)N2CCN1C[C@H]2CC(=O)N(c3cc(C(F)(F)F)cc(C)n3)[C@@H]2C(=O)N(C)c2cccc(C)c21 [Example 261, (3aR,11aS)-5-(2-(3-acryloyl-3,6-diazabicyclo[3.1.1]heptan-6-yl)ethyl)-6,10-dimethyl-1-(6-methyl-4-(trifluoromethyl)pyridin-2-yl)-1,3a,4,5,10,11a-hexahydro-2H-benzo[b]pyrrolo[2,3-f][1,4]diazocine-2,11(3H)-dione] | 340000 M⁻¹ s⁻¹ |
| C=CC(=O)N1CC2CCC(C1)N2CCN1C[C@H]2CC(=O)N(c3cc(C(F)(F)F)cc(C)n3)[C@@H]2C(=O)N(C)c2cccc(C)c21 [Example 262, (3aR,11aS)-5-(2-(3-acryloyl-3,8-diazabicyclo[3.2.1]octan-8-yl)ethyl)-6,10-dimethyl-1-(6-methyl-4-(trifluoromethyl)pyridin-2-yl)-1,3a,4,5,10,11a-hexahydro-2H-benzo[b]pyrrolo[2,3-f][1,4]diazocine-2,11(3H)-dione] | 710000 M⁻¹ s⁻¹ |
| C=CC(=O)N1C[C@H]2C[C@@H]1CN2CCN1C[C@H]2CC(=O)N(c3cc(C(F)(F)F)cc(C)n3)[C@@H]2C(=O)N(C)c2cccc(C)c21 [Example 263, (3aR,11aS)-5-(2-((1R,4R)-5-acryloyl-2,5-diazabicyclo[2.2.1]heptan-2-yl)ethyl)-6,10-dimethyl-1-(6-methyl-4-(trifluoromethyl)pyridin-2-yl)-1,3a,4,5,10,11a-hexahydro-2H-benzo[b]pyrrolo[2,3-f][1,4]diazocine-2,11(3H)-dione] | 1.06e+06 M⁻¹ s⁻¹ |
| C#CC(=O)N1CCN(CCN2C[C@H]3CC(=O)N(c4cc(C(F)(F)F)cc(C)n4)[C@@H]3C(=O)N(C)c3cccc(C)c32)CC1 [Example 264, (3aR,11aS)-6,10-dimethyl-1-(6-methyl-4-(trifluoromethyl)pyridin-2-yl)-5-(2-(4-propioloylpiperazin-1-yl)ethyl)-1,3a,4,5,10,11a-hexahydro-2H-benzo[b]pyrrolo[2,3-f][1,4]diazocine-2,11(3H)-dione] | 1.25e+06 M⁻¹ s⁻¹ |
| C=CC(=O)N1CCN(CCCN2C[C@H]3CC(=O)N(c4cc(C(F)(F)F)cc(C)n4)[C@@H]3C(=O)N(C)c3cccc(Cl)c32)CC1 [Example 266, (3aR,11aS)-5-(3-(4-acryloylpiperazin-1-yl)propyl)-6-chloro-10-methyl-1-(6-methyl-4-(trifluoromethyl)pyridin-2-yl)-1,3a,4,5,10,11a-hexahydro-2H-benzo[b]pyrrolo[2,3-f][1,4]diazocine-2,11(3H)-dione] | 590000 M⁻¹ s⁻¹ |
| C=CC(=O)N1CCC[C@@H]1c1noc(CN2C[C@H]3CC(=O)N(c4cc(C(F)(F)F)cc(C)n4)[C@@H]3C(=O)N(C)c3cccc(C)c32)n1 [Example 268, (3aR,11aS)-5-((3-((R)-1-acryloylpyrrolidin-2-yl)-1,2,4-oxadiazol-5-yl)methyl)-6,10-dimethyl-1-(6-methyl-4-(trifluoromethyl)pyridin-2-yl)-1,3a,4,5,10,11a-hexahydro-2H-bez[b]pyrrolo[2,3-f][1,4]diazocine-2,11(3H)-dione] | 410000 M⁻¹ s⁻¹ |
| C=CC(=O)N1CCC[C@H]1c1noc(CN2C[C@H]3CC(=O)N(c4cc(C(F)(F)F)cc(C)n4)[C@@H]3C(=O)N(C)c3cccc(C)c32)n1 [Example 269, (3aR,11aS)-5-((3-((S)-1-acryloylpyrrolidin-2-yl)-1,2,4-oxadiazol-5-yl)methyl)-6,10-dimethyl-1-(6-methyl-4-(trifluoromethyl)pyridin-2-yl)-1,3a,4,5,10,11a-hexahydro-2H-benzo[b]pyrrolo[2,3-f][1,4]diazocine-2,11(3H)-dione] | 970000 M⁻¹ s⁻¹ |
| C=CC(=O)N1CCC[C@@H]1c1nc(CN2C[C@H]3CC(=O)N(c4cc(C(F)(F)F)cc(C)n4)[C@@H]3C(=O)N(C)c3cccc(C)c32)no1 [Example 270, (3aR,11aS)-5-((5-((R)-1-acryloylpyrrolidin-2-yl)-1,2,4-oxadiazol-3-yl)methyl)-6,10-dimethyl-1-(6-methyl-4-(trifluoromethyl)pyridin-2-yl)-1,3a,4,5,10,11a-hexahydro-2H-benzo[b]pyrrolo[2,3-f][1,4]diazocine-2,11(3H)-dione] | 110000 M⁻¹ s⁻¹ |
| C=CC(=O)N1CCC[C@H]1c1nc(CN2C[C@H]3CC(=O)N(c4cc(C(F)(F)F)cc(C)n4)[C@@H]3C(=O)N(C)c3cccc(C)c32)no1 [Example 271, (3aR,11aS)-5-((5-((S)-1-acryloylpyrrolidin-2-yl)-1,2,4-oxadiazol-3-yl)methyl)-6,10-dimethyl-1-(6-methyl-4-(trifluoromethyl)pyridin-2-yl)-1,3a,4,5,10,11a-hexahydro-2H-benzo[b]pyrrolo[2,3-f][1,4]diazocine-2,11(3H)-dione] | 200000 M⁻¹ s⁻¹ |
| C=CC(=O)N1CCC[C@@H]1c1nnc(CN2C[C@H]3CC(=O)N(c4cc(C(F)(F)F)cc(C)n4)[C@@H]3C(=O)N(C)c3cccc(C)c32)o1 [Example 272, (3aR,11aS)-5-((5-((R)-1-acryloylpyrrolidin-2-yl)-1,3,4-oxadiazol-2-yl)methyl)-6,10-dimethyl-1-(6-methyl-4-(trifluoromethyl)pyridin-2-yl)-1,3a,4,5,10,11a-hexahydro-2H-benzo[b]pyrrolo[2,3-f][1,4]diazocine-2,11(3H)-dione] | 33000 M⁻¹ s⁻¹ |
